Columns and labels:
[1] = biological target: T1, recombinant human plasminogen activator inhibitor-1 (PAI-1) (Homo sapiens, UniProt P05121); test: Modification of the Primary Screen for the PAI-1 Inhibition (IC50); assay type: biochemical; conditions: footnote b: determined by a modification of the Primary Screen for the PAI-1 Inhibition
T1 construct: purchased Molecular Innovations, Royal Oak, Mich
Method: (§1) Primary Screen for the PAI-1 Inhibition
(§2) Test compounds are dissolved in DMSO at a final concentration of 10 mM, then diluted 100× in physiologic buffer. The inhibitory assay is initiated by the addition of the test compound (1-100 μM final concentration, maximum DMSO concentration of 0.2%) in a pH 6.6 buffer containing 140 nM recombinant human plasminogen activator inhibitor-1 (PAI-1; Molecular Innovations, Royal Oak, Mich.). Following a 1 hour incubation at room temperature, 70 nM of recombinant human tissue plasminogen activator (tPA) is added, and the combination of the test compound, PAI-1 and tPA is incubated for an additional 30 minutes. Following the second incubation, Spectrozyme-tPA (American Diagnostica, Greenwich, Conn.), a chromogenic substrate for tPA, is added and absorbance read at 405 nm at 0 and 60 minutes. Relative PAI-1 inhibition is equal to the residual tPA activity in the presence of the test compound and PAI-1. Control treatments include the complete inhibition of tPA by PAI-1 at the molar ratio employed (2:1), and the absence of any effect of the test compound on tPA alone.

[2] = biological target: human PAI-1 (Homo sapiens, UniProt P05121); test: Antibody Assay for Determining IC50 of Inhibition of PAI-1 (active PAI-1 bound to tPA-coated plate, 33B8 antibody); assay type: binding
Chain of human PAI-1 (P05121 24-402): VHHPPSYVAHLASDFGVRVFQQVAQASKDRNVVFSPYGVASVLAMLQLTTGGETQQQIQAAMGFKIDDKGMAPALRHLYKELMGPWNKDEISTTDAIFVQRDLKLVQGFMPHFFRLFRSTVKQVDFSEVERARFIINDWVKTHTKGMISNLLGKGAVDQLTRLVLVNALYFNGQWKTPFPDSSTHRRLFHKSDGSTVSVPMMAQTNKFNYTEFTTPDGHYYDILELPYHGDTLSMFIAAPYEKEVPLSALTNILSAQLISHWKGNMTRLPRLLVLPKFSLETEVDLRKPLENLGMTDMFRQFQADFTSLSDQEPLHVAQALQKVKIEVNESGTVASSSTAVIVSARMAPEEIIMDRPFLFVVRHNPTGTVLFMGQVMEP
Method: Assay for Determining IC50 of Inhibition of PAI-1
This assay is based upon the non-SDS dissociable interaction between tPA and active PAI-1. Assay plates are initially coated with human tPA (10 μg/ml). Test compounds are dissolved in DMSO at 10 mM, then diluted with physiologic buffer (pH 7.5) to a final concentration of 1-50 μM. Test compounds are incubated with human PAI-1 (50 ng/ml) for 15 minutes at room temperature. The tPA-coated plate is washed with a solution of 0.05% Tween 20 and 0.1% BSA, then the plate is blocked with a solution of 3% BSA. […] The plate is again washed, and a solution of goat anti-mouse IgG-alkaline phosphatase conjugate is added at a 1:50,000 dilution in goat serum. The plate is incubated 30 minutes at room temperature, washed, and a solution of alkaline phosphatase substrate is added. The plate is incubated 45 minutes at room temperature, and color development is determined at OD405nm. […] Results are analyzed using a logarithmic best-fit equation. The assay sensitivity is 5 ng/ml of human PAI-1 as determined from a standard curve ranging from 0-100 ng/ml.

[3] = biological target: T1, recombinant human plasminogen activator inhibitor-1 (PAI-1); test: Primary Screen for the PAI-1 Inhibition (residual tPA activity, Spectrozyme-tPA chromogenic substrate); assay type: biochemical; conditions: 25 μM test compound
Method: as §1, §2

T1 sequence (P05121 24-402): as above

SMILES	IC50 [1] [µM]	melting point	IC50 [2] [µM]	inhibition at 25 µM [3] [%]
Cc1ccc(Cn2cc(C(=O)C(=O)O)c3cc(-c4ccccc4)ccc32)cc1 [Example 25, [1-(4-Methylbenzyl)-5-phenyl-1H-indol-3-yl](oxo)acetic acid]	14	195 to 196 °C	–	–
CC(C)(C)c1ccc(Cn2cc(C(=O)C(=O)O)c3cc(-c4ccc(OC(F)(F)F)cc4)ccc32)cc1 [Example 19, {1-(4-tert-Butylbenzyl)-5-[4-(trifluoromethoxy)phenyl]-1H-indol-3-yl}(oxo)acetic acid]	15.8	–	–	–
Cc1cccc(-c2ccc3c(c2)c(C(=O)C(=O)O)cn3Cc2ccc(C(C)(C)C)cc2)c1 [Example 34, [1-(4-tert-Butylbenzyl)-5-(3-methylphenyl)-1H-indol-3-yl](oxo)acetic acid]	6.2	–	–	–
Cc1ccc(Cn2cc(C(=O)C(=O)O)c3cc(-c4ccc(OC(F)(F)F)cc4)ccc32)cc1 [Example 26, {1-(4-Methylbenzyl)-5-[4-(trifluoromethoxy)phenyl]-1H-indol-3-yl}(oxo)acetic acid]	6.8	192 to 193 °C	–	–
CC(C)(C)c1ccc(Cn2cc(C(=O)C(=O)O)c3ccc(-c4ccc(OC(F)(F)F)cc4)cc32)cc1 [Example 8, {1-[4-(tert-Butyl)benzyl]-6-[4-(trifluoromethoxy)phenyl]-1H-indol-3-yl}(oxo)acetic acid]	11.2	–	–	–
CCCCn1cc(C(=O)C(=O)O)c2cc(-c3ccc(Cl)cc3)ccc21 [Example 29, [1-Butyl-5-(4-chlorophenyl)-1H-indol-3-yl](oxo)acetic acid]	–	136 to 137 °C	12.5	–
O=C(O)c1cn(Cc2ccccc2)c2ccc(-c3ccc(F)c(Cl)c3)cc12 [Example 62, 1-Benzyl-5-(3-chloro-4-fluoro-phenyl)-1H-indole-3-carboxylic acid]	–	189 to 194 °C	11.2	53
CCCCn1cc(C(=O)C(=O)O)c2cc(-c3cccc(Cl)c3)ccc21 [Example 30, [1-Butyl-5-(3-chlorophenyl)-1H-indol-3-yl](oxo)acetic acid]	16	108 to 109 °C	–	–

Second part, led by results:

IC50 [1] [µM]	melting point	SMILES	IC50 [2] [µM]	inhibition at 25 µM [3] [%]
6.5	145 to 146 °C (dec.)	O=C(O)C(=O)c1cn(Cc2ccccc2)c2ccc(-c3ccc(F)c(Cl)c3)cc12 [Example 15, [1-Benzyl-5-(3-chloro-4-fluorophenyl)-1H-indol-3-yl](oxo)acetic acid]	–	–
32	256 to 257 °C (dec.)	Cn1cc(C(=O)C(=O)O)c2ccc(-c3ccc(C(F)(F)F)cc3)cc21 [Example 2, {1-Methyl-6-[4-(trifluoromethyl)phenyl]-1H-indol-3-yl}(oxo)acetic acid]	–	–
8.5	98 to 99 °C	CCC(CC)Cn1cc(C(=O)C(=O)O)c2cc(-c3ccc(OC(F)(F)F)cc3)ccc21 [Example 40, {1-(2-Ethylbutyl)-5-[4-(trifluoromethoxy)phenyl]-1H-indol-3-yl}(oxo)acetic acid]	–	–
14.6	–	COc1cccc(-c2ccc3c(c2)c(C(=O)C(=O)O)cn3Cc2ccc(C(C)(C)C)cc2)c1 [Example 35, [1-(4-tert-Butylbenzyl)-5-(3-methoxyphenyl)-1H-indol-3-yl](oxo)acetic acid]	–	–
5.3	158 to 159 °C	O=C(O)C(=O)c1cn(Cc2ccc(F)cc2)c2ccc(-c3ccc(OC(F)(F)F)cc3)cc12 [Example 27, {1-(4-Fluorobenzyl)-5-[4-(trifluoromethoxy)phenyl]-1H-indol-3-yl}(oxo)acetic acid]	–	–
19.4	153 to 156 °C	O=C(O)C(=O)c1cn(Cc2ccccc2)c2c(-c3ccc(F)c(Cl)c3)cccc12 [Example 18, [1-Benzyl-7-(3-chloro-4-fluorophenyl)-1H-indol-3-yl](oxo)acetic acid]	–	–
